For the experiment, the system named is human osteoblast precursor cells. As to the kind of experiment: Cell proliferation rate under the influence of growth factors, using bromodeoxyuridine incorporation (BrdU incorporation). It counts as cell-based. To be noted: 54 h incubation + 18 h BrdU labelling, OD at 405 nm. Here is the method: 3,000 osteoblastic cells from fractions t1 to 2 up to the second passage, recovered from osteoporotic patients (OP cells), per well of a 96-well microwell plate were incubated in the presence of 10% FCS and 10% inactivated human control serum in a cell culture medium (α-MEM and HAM-S F12 medium […]) for 48 h, 120 h and 192 h. In parallel, 3,000 osteoblastic cells from non-osteoporotic patients were incubated under the same conditions. The number of intact cells was determined by means of trypan blue staining and counting in a counting chamber. 4. Determination of the cell proliferation rate under the influence of the three growth factors 1, 2 and 3 using bromodeoxyuridine incorporation (BrdU incorporation) Growth factor 1 =TGF-β2
Cells from fraction 1 and/or 2 of each punched-out bone piece up to the 2nd passage were used in the proliferation test.
3 ×10^3 cells from the first and/or second passage per well of a 96-well plate and 200 μl of medium were used.
The cells were cultivated for three days under the conditions previously described and subsequently cultivated further for one day in medium with no serum until subconfluence was reached.
Thereafter, the three growth factors 1, 2 and 3 were added to the cells at four different final concentrations (100, 10, 1, and 0.1 ng/ml medium).
Cells in a medium containing 10% FKS and in a medium containing 5% Ultroser served as controls.
Triplets were set up for all concentrations and controls.
Six wells including cells, to which no bromodeoxyuridine had been added during the proliferation test served as blank controls.
After 54 hours of incubation with the growth factors, the proliferation test (5-Bromo-2′-deoxyuridine Labeling and Detection Kit III by Boehringer Mannheim) was initiated by adding 20 μl of labelling solution diluted 1:90 in 1% BSA medium and subsequent incubation for 18 hours.
The proliferation test was conducted according to the manufacturer's instructions.
Evaluation of the proliferation test was effected by measuring the optical density (OD) at 405 nm in an ELISA reader. After 60 minutes of color development, the absorbance was measured 12 times at intervals of 5 minutes.

On to “IGF I: protein growth factor 2 (insulin-like growth factor I)”, for which the Absorbance mean value was 0.151 (0.1 ng/ml medium), 0.148 (1 ng/ml medium), 0.140 (10 ng/ml medium) and 0.140 (100 ng/ml medium).

With “IGF II: protein growth factor 3 (insulin-like growth factor II)”, the Absorbance mean value runs as follows: (0.1 ng/ml medium) 0.148; (1 ng/ml medium) 0.150; (10 ng/ml medium) 0.139; (100 ng/ml medium) 0.140.

The values above are taken from patent US6713269B2, “Methods for identifying potential therapeutic agents for treatment of osteoporosis using mitogenic indices” (co.don Aktiengesellschaft, priority 1995, dated 2004).
